“And” between values parts separate entries of the source, which are not always exact repeats. Equal values may be shown once.
Assays:
BRCC36–Abraxas 2 complex = biological target: T1, BRCC36–Abraxas 2 complex (Homo sapiens, UniProt P46736+Q15018); test: BRCC36–Abraxas 2 IQF DUB activity assay; format: biochemical; conditions: for Normalised V0: Fig. 1e, BRCC36-Abraxas2
T1 construct: made in house; host or cells: Spodoptera frugiperda (Sf9) insect cells, MultiBac
Experimental: IQF assays were performed in DUB reaction buffer containing 50 mM HEPES–NaOH pH 7.0, 100 mM NaCl, 0.1 mg ml^−1 BSA, 1 mM DTT and 0.03% v/v Brij-35. […] The final concentration of BRISC WT, all BRISC mutants, HsBRISCΔLoop, MmBRISC and DrBRISCΔNΔC was 1 nM. Other enzymes were tested at the following concentrations: 5 nM ARISC (FL), 10 nM CfBRISCΔNΔC, 250 nM AMSH* (ref. [43]), 500 nM USP2 and 1 μM trypsin (Sigma, 9002-07-7). For Michaelis–Menten experiments, 1 nM BRISC with 0–1 μM IQF K63-linked diubiquitin substrate was used. Michaelis–Menten analyses and Lineweaver–Burk plots were calculated using GraphPad Prism (version 9.0).
To assess enzymatic activity, BRISC complexes were diluted to concentrations between 1 nM and 50 nM. […] Then, 20-μl enzyme reactions were carried out in 384-well black flat-bottom low-flange plates (Corning, 35373). DUB activity was measured using IQF K63-linked diubiquitin (LifeSensors, DU6303) at 50 nM. Cleaved diubiquitin was monitored by measuring fluorescence intensity (excitation, 544 nm; emission, 575 nm; dichroic mirror, 560 nm). Fluorescence intensity was measured every minute for 30 min at 30 °C. Fluorescence intensity units were plotted against time to generate a linear reaction progress curve, where the initial velocity (V0) corresponds to the gradient of the curve (typically achieved within 15 min). IC50 values were calculated using the GraphPad Prism (version 9.0) built-in dose–response equation for inhibitor concentration versus response (variable slope).

BRISC (FL) = biological target: T2, BRISC (FL) (Homo sapiens, UniProt P46736+Q15018+Q9NXR7); test: In-gel deubiquitylation assay, TAMRA-labeled K63-tetraubiquitin, BRISC; format: biochemical; conditions: 10 μM or 100 μM inhibitor
T2 construct: full-length BRISC (FL), ARISC (FL); made in house; host or cells: Spodoptera frugiperda Sf9 insect cells (MultiBac)
Experimental: The inhibitor capzimin (Merck) was diluted in 1 mM DTT and incubated for 30 min at room temperature to reduce disulfide bonds required for inhibitor activity. […] DUBs were incubated with 750 nM TAMRA-labeled K63-tetraubiquitin (LifeSensors, SI6304T) for 10 min at 30 °C. Reactions were quenched by adding 2.5 μl of 4× SDS–PAGE loading dye (240 mM Tris-HCl pH 6.8, 40% v/v glycerol, 8% w/v SDS, 0.04% w/v bromophenol blue and 5% v/v β-mercaptoethanol). The samples were resolved on 4–12% NuPAGE Bis–Tris gels (Thermo Fisher Scientific). Gels were scanned using an iBright FL 1500 (Thermo Fisher Scientific) (excitation, 515–545 nm; emission, 568–617 nm; exposure, 500 ms).

[1] = tested on: ISG expression in MCF10A Cas9 cells expressing BRCC45 R137A; test: MCF10A BRCC45 R137A ISG expression (RT–qPCR); format: cell-based, human; conditions: hIFNα2 75 ng/ml, 2.5 μM, 4 h

O=C(NC1CCNCC1)c1nn(C(=O)c2c(Cl)cccc2Cl)cc1NC(=O)c1c(Cl)cccc1Cl [JMS-175-2]
Normalised V0 (BRCC36–Abraxas 2 complex; JMS-175-2 0.02 μM): 0.9193 and 1.28 and 0.6661
Normalised V0 (BRCC36–Abraxas 2 complex; JMS-175-2 0.0399999 μM): 0.9382 and 1.101 and 1.021
Normalised V0 (BRCC36–Abraxas 2 complex; JMS-175-2 0.0599997 μM): 0.9046 and 1.264
Normalised V0 (BRCC36–Abraxas 2 complex; JMS-175-2 0.0799994 μM): 0.9962 and 1.366 and 1.351
Normalised V0 (BRCC36–Abraxas 2 complex; JMS-175-2 0.119998 μM): 0.9007 and 1.233 and 1.5528
Normalised V0 (BRCC36–Abraxas 2 complex; JMS-175-2 0.199996 μM): 1.097 and 1.27 and 0.9275
Normalised V0 (BRCC36–Abraxas 2 complex; JMS-175-2 0.499975 μM): 0.8805 and 1.153 and 1.01
Normalised V0 (BRCC36–Abraxas 2 complex; JMS-175-2 0.799936 μM): 0.7961 and 1.246 and 1.323
Normalised V0 (BRCC36–Abraxas 2 complex; JMS-175-2 1.25984 μM): 1.021 and 1.5206 and 1.034
Normalised V0 (BRCC36–Abraxas 2 complex; JMS-175-2 1.9996 μM): 0.8007 and 0.8599 and 1.275
Normalised V0 (BRCC36–Abraxas 2 complex; JMS-175-2 3.159 μM): 1.12 and 1.1529 and 0.9992
Normalised V0 (BRCC36–Abraxas 2 complex; JMS-175-2 5.19739 μM): 0.8446 and 1.053 and 1.407
Normalised V0 (BRCC36–Abraxas 2 complex; JMS-175-2 7.99364 μM): 0.9387 and 0.8597 and 1.27
Normalised V0 (BRCC36–Abraxas 2 complex; JMS-175-2 12.7839 μM): 0.8621 and 1.3106 and 1.2815
Normalised V0 (BRCC36–Abraxas 2 complex; JMS-175-2 19.96 μM): 0.8364 and 1.032 and 1.13
Normalised V0 (BRCC36–Abraxas 2 complex; JMS-175-2 31.4999 μM): 0.8279 and 0.9824 and 0.8224
Normalised V0 (BRCC36–Abraxas 2 complex; JMS-175-2 50.147 μM): 0.8729 and 0.9534 and 1.051
Normalised V0 (BRCC36–Abraxas 2 complex; JMS-175-2 79.7601 μM): 0.848 and 0.9243 and 1.386
Normalised V0 (BRCC36–Abraxas 2 complex; JMS-175-2 125.99 μM): 0.7998 and 0.9987 and 1.073
inhibition of BRCC36–Abraxas 2 complex (BRCC36–Abraxas 2 complex; minimally active complex): did not inhibit
inhibition of BRISC cleavage of K63-linked tetraubiquitin (BRISC (FL)): inhibit
ISG expression (ISG15, IFIT1, IFIT2, IFITM1, CXCL10) [1]: a reduction in ISG expression was not observed
